This passage reports IC50 results from ChEMBL document CHEMBL4256941, “Histone demethylase inhibitors” (2016).

The target in assay [1] is Lysine-specific demethylase 5A (Homo sapiens, UniProt P29375). Put plainly: Inhibition of recombinant human C-terminal FLAG-tagged JARID1A (1 to 1090 residues) expressed in baculovirus infected sf9 cells using H3K4me3-biotin peptide as substrate after 30 mins in presence of alpha-ketoglutaric acid by LANCE TR-FRET assay. Background: TR-FRET usually uses a lanthanide donor and a delayed reading to cut background.

Assay [2] has as its target Lysine-specific demethylase 5B (Homo sapiens, UniProt Q9UGL1). Put plainly: Inhibition of recombinant human N-terminal His-FLAG tagged JARID1B (2 to 751 residues) expressed in baculovirus infected sf9 cells using H3K4me3-biotin peptide as substrate after 30 mins in presence of alpha-ketoglutaric acid by LANCE TR-FRET assay.
Assay [3] has as its target T1, Lysine-specific demethylase 4C (Homo sapiens, UniProt Q9H3R0).
T1 sequence (Q9H3R0 whole entry): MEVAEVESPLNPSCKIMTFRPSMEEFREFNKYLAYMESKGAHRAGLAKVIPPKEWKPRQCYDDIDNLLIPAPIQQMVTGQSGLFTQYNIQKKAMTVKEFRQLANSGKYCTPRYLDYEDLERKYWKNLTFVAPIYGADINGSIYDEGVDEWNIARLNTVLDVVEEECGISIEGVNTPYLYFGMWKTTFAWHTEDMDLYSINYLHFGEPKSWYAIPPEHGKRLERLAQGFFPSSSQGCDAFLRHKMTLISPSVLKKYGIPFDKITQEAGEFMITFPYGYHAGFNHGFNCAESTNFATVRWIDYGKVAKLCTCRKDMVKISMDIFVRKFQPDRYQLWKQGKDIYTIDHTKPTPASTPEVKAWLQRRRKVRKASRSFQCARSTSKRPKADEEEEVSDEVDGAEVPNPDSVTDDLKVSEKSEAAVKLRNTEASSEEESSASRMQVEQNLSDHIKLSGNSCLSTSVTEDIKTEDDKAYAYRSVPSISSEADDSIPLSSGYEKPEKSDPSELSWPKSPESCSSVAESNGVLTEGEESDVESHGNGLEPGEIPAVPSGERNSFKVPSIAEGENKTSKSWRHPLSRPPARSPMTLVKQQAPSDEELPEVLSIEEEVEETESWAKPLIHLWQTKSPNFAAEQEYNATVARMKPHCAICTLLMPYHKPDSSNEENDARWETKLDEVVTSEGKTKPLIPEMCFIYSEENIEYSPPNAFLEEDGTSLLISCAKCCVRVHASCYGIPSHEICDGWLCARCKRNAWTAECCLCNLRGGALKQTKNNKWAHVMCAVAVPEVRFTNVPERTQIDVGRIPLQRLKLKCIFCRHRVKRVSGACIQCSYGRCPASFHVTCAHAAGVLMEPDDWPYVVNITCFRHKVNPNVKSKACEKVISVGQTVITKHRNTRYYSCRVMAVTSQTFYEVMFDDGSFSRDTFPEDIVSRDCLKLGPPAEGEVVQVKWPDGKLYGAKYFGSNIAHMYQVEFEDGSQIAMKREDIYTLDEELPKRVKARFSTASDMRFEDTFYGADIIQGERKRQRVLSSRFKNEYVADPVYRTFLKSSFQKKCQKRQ
Put plainly: Inhibition of recombinant human N-terminal GST-tagged JMJD2C (2 to 372 residues) expressed in baculovirus infected sf9 cells using H3K9me3-biotin peptide as substrate after 30 mins in presence of alpha-ketoglutaric acid by LANCE TR-FRET assay.

Chain of Lysine-specific demethylase 5B (Q9UGL1 whole entry, the tested form may be a part): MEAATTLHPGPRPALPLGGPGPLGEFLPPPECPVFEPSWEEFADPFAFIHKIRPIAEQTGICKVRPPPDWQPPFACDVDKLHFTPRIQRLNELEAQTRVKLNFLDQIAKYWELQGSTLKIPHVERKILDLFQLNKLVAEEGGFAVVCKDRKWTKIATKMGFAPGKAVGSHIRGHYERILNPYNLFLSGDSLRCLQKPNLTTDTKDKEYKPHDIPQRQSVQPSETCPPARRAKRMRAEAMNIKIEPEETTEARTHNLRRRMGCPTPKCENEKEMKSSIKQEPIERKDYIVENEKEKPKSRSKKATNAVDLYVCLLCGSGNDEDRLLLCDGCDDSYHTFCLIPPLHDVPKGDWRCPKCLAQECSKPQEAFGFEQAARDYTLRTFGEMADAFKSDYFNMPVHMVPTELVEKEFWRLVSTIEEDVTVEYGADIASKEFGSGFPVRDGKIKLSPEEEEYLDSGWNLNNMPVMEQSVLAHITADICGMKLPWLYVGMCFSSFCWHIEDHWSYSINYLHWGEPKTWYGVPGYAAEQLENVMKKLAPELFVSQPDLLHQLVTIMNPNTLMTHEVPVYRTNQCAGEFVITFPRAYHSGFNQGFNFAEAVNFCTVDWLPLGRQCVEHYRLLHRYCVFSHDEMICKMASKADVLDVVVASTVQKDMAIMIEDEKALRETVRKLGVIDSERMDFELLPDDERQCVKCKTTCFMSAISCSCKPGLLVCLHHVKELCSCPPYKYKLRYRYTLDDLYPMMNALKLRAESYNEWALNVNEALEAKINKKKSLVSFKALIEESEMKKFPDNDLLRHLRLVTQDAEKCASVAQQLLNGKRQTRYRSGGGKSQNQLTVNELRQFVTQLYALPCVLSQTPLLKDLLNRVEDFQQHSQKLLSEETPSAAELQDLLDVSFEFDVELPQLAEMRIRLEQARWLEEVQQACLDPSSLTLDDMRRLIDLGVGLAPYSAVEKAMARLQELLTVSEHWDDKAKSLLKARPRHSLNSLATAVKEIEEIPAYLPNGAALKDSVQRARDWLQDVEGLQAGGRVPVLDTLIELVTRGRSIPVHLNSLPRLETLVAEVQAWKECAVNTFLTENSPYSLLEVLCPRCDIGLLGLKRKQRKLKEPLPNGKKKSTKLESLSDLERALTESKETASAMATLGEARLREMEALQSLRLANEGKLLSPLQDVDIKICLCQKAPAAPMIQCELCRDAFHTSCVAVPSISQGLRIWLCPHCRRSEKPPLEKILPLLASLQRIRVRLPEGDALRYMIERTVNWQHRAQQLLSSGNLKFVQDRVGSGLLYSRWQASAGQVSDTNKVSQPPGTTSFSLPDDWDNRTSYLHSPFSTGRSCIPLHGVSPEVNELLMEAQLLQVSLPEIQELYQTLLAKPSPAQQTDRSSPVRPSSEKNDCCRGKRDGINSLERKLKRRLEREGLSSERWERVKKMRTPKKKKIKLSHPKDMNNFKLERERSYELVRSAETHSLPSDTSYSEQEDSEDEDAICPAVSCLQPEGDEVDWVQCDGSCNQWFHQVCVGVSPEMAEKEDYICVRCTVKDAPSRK
Chain of Lysine-specific demethylase 5A (P29375 whole entry, the tested form may be a part): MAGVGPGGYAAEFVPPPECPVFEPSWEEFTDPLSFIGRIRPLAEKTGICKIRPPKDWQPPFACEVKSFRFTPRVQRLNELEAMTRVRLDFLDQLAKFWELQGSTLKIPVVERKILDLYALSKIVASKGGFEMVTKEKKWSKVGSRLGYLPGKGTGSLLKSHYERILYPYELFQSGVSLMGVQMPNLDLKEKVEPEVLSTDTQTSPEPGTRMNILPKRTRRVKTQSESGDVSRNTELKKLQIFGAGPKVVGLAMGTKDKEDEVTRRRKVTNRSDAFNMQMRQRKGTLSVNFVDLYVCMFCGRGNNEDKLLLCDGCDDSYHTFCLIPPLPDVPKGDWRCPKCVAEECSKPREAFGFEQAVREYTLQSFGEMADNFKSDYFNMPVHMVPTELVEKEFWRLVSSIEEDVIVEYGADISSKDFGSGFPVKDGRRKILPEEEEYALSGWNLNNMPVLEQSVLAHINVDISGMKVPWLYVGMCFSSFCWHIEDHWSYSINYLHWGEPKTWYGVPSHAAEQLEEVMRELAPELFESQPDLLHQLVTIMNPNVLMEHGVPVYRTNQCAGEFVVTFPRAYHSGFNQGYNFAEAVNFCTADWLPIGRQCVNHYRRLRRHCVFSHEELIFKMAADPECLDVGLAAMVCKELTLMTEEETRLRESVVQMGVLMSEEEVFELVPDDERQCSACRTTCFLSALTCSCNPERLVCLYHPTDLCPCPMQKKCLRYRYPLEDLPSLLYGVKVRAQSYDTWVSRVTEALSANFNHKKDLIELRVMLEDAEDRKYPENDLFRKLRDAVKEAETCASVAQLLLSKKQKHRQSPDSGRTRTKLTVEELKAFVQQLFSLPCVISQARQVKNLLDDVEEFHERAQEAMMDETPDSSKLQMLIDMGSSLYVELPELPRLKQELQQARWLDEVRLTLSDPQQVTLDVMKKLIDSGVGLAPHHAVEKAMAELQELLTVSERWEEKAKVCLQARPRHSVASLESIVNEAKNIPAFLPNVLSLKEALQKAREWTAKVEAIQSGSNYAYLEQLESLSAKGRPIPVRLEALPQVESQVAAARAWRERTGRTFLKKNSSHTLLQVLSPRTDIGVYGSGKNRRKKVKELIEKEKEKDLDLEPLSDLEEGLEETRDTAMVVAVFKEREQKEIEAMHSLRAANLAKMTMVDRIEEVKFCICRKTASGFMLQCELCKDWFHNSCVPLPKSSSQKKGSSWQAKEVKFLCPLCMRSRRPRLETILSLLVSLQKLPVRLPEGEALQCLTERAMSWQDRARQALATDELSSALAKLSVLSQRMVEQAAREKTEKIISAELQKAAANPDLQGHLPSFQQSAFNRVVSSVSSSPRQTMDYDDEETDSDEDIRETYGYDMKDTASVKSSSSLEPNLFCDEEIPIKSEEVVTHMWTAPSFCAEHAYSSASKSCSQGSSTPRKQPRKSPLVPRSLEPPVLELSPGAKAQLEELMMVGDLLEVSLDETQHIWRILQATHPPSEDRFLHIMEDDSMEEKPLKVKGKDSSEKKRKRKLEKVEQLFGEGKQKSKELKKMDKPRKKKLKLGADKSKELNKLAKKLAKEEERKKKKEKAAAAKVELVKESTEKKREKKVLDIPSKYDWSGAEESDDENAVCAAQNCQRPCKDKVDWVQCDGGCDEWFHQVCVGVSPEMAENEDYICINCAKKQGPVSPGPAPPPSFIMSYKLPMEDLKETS

With `O=C(O)c1ccnc(-n2nccc2OCc2ccc(F)c(OCc3ccc(F)cc3)c2)c1`, the IC50 (as a rule, the concentration at which inhibition is half-maximal) in assay [1] was ≤ 100 nM; in assay [2], ≤ 100 nM; in assay [3] it was 100 to 1000 nM.
